The record followed here is patent US5420129A, “Phenylsulfonylamide pyrimidine” (Hoffmann-La Roche Inc., priority 1992, dated 1995).

Test [1] addresses endothelin receptors (human placenta membranes). Nature of the test: Inhibition of endothelin binding to human placenta membranes (125I-endothelin). The note with it: 125I-endothelin 20 pM, 20° C. for 2 hours or 4° C. for 24 hours, read-out: IC50 (concentration required to inhibit 50% of the specific binding of 125I-endothelin). The procedure: I. Inhibition of endothelin binding to human placenta membranes (see. Life Sci 44:1429 (1989))
Human placenta is homogenized in 5 mM Tris buffer, pH 7.4, which contains 1 mM MgCl2 and 250 mM sucrose. The homogenizate is centrifuged at 4° C. and 3000 g for 15 minutes, the supernatant containing the plasma membrane fraction is centrifuged with 72000 g for 30 minutes and the precipitate is washed with 75 mM Tris buffer, pH 7.4, which contains 25 mM MgCl2. Thereafter, precipitate obtained from in each case 10 g of original tissue is suspended in 1 ml of 75 mM Tris buffer, pH 7.4, containing 25 mM MgCl2 and 250 mM sucrose, and freeze-dried at --20° C. in 1 ml aliquots.
For the binding assay, the freeze-dried membrane preparations are thawed and, after centrifugation at 20° C. and 25000 g for 10 minutes, re-suspended in assay buffer (50 mM Tris buffer, pH 7.4, containing 25 mM MnCl2, 1 mM EDTA and 0.5% of bovine serum albumin). 100 μl of this membrane suspension containing 70 μg of protein are incubated with 50 μl of ^125 I-endothelin (specific activity 2200 Ci/mMol) in assay buffer (25000 cpm, final concentration 20 pM) and 100 μl of assay buffer containing varying concentrations of test compound. The incubation is carried out at 20° C. for 2 hours or at 4° C. for 24 hours. The separation of free and membrane-bound radioligands is carried out by filtration over a glass fiber filter.
The inhibitory activity of compounds of formula I determined in test procedure I is given in Table 1 as the IC50, that as the concentration […] which is required to inhibit 50% of the specific binding of ^1251 -endothelin.

The test system of the next test is isolated rat aorta rings. Put plainly: Endothelin-induced contractions in isolated rat aorta rings. The arrangement: species or system rat (Wistar-Kyoto). The note with it: in the absence of test compounds; endothelium removed; 37° C.; read-out: EC50 of endothelin (concentration required for a half-maximum contraction). The method, then:
II. Inhibition of endothelin-induced contractions in isolated rat aorta rings
Rings with a length of 5 mm were cut out from the thorax aorta of adult Wistar-Kyoto rats. The endothelium was removed by lightly rubbing the internal surface. Each ring was immersed at 37° C. in 10 ml of Krebs-Henseleit solution in an isolated bath while gassing with 95% O2 and 5% CO2. The isometric stretching of the rings was measured. The rings were stretched to a pre-tension of 3 g. After incubation for 10 minutes with the test compound or vehicle cumulative dosages of endothelin-1 were added. The activity of the test compound was determined by calculating the dosage ratios, i.e. the shift to the right (shift to higher values) of the EC50 of endothelin induced by 100 μM of test compound, with EC50 denoting the endothelin concentration required for a half-maximum contraction. […] The EC50 of endothelin in the absence of test compounds is 0.3 nM.

Take `COc1ccc(Cl)c(Oc2c(COCC(O)CO)nc(N3CCOCC3)nc2NS(=O)(=O)c2ccc(C(C)(C)C)cc2)c1` (racemic) [Example 13, (R,S)-4-tert-butyl-N-[5-(2-chloro-5-methoxy-phenoxy)-6-(2,3-dihydroxy-propoxymethyl)-2-(morpholin-4-yl)-pyrimidin-4yl]-benzenesulphonamide]: the IC50 in test [1] was 182 nM.
Turning to “endothelin: endothelin-1, agonist added in cumulative dosages to contract rat aorta rings”, in the test with isolated rat aorta rings, the EC50 is 0.3 nM.
On to `COc1ccc(Cl)c(Oc2c(CO)nc(N3CCOCC3)nc2NS(=O)(=O)c2ccc(C(C)(C)C)cc2)c1` [Example 3, 4-tert-butyl-N-[5-(2-chloro-5-methoxy-phenoxy)-6-hydroxymethyl-2-(morpholin-4-yl)-pyrimidin-4-yl]-benzenesulphonamide], for which, in test [1], the IC50 was found to be 130 nM.
Regarding `COc1ccc(Cl)c(Oc2c(COCCO)nc(N3CCOCC3)nc2NS(=O)(=O)c2ccc(C(C)(C)C)cc2)c1` [Example 5, 4-tert-butyl-N-[5-(2-chloro-5methoxy-phenoxy)-6-(2-hydroxy-ethoxymethyl)-2-(morpholin-4-yl)-pyrimidin-4-yl]-benzenesulphonamide], the IC50 in test [1] was determined as 35 nM.
Same read-out and setting: under `COc1ccc(Cl)c(Oc2c(COCCO)ncnc2NS(=O)(=O)c2ccc(C(C)(C)C)cc2)c1` [Example 10, 4-tert-Butyl-N-[5-(2-chloro-5-methoxy-phenoxy)-6-(2-hydroxy-ethoxy-methyl)-pyrimidin-4-yl]-benzenesulphonamide] stands 184 nM.
